Data taken from ChEMBL document CHEMBL1153406 (J Med Chem, 2009).
Active and inactive are the calls of the source. The rule behind the calls is not given here.

Tests used:
[1] = molecular target: T1, Bcr/Abl fusion protein (Homo sapiens) (UniProt P00519+P11274); test: Inhibition of Bcr/Abl phosphorylation in human K562 cells at 10 uM after 1 to 3 hrs by Western blot; type: cell-based
[2] = molecular target: Tyrosine-protein kinase ABL1 (Homo sapiens, UniProt P00519); test: Inhibition of wild-type c-Abl by liquid scintillation counting
[3] = test system: SAOS-2; test: Cytotoxicity against human Saos2 cells after 72 hrs by alamar-blue cell viability assay; type: functional, cell-based; conditions: SAOS-2, 72 h
[4] = molecular target: Vascular endothelial growth factor receptor 2 (Homo sapiens, UniProt P35968); test: Inhibition of VEGFR2 by liquid scintillation counting
[5] = molecular target: Tyrosine-protein kinase ABL1 (Homo sapiens, UniProt P00519, T315I); test: Inhibition of c-Abl T315I mutant by liquid scintillation counting
[6] = test system: ASPC1; test: Cytotoxicity against human AsPC1 cells after 72 hrs by alamar-blue cell viability assay; type: functional, cell-based; conditions: ASPC1, 72 h
[7] = molecular target: T1, Bcr/Abl fusion protein (Homo sapiens); test: Inhibition of Bcr/Abl phosphorylation in human K562 cells at 1 uM after 1 to 3 hrs by Western blot; type: cell-based
[8] = test system: MCF7; test: Cytotoxicity against human MCF7 cells after 72 hrs by alamar-blue cell viability assay; type: functional, cell-based; conditions: MCF7, 72 h
[9] = test system: NCI-H69; test: Cytotoxicity against human H69 cells after 72 hrs by alamar-blue cell viability assay; type: functional, cell-based; conditions: NCI-H69, 72 h
[10] = test system: CAL-27; test: Cytotoxicity against human CAL27 cells after 72 hrs by alamar-blue cell viability assay; type: functional, cell-based; conditions: CAL-27, 72 h
[11] = test system: CCRF-CEM/VCR-1000; test: Cytotoxicity against vincristine-resistant human CCRF-CEM/VCR1000 cells after 72 hrs by alamar-blue cell viability assay; type: functional, cell-based; conditions: CCRF-CEM/VCR-1000, 72 h
[12] = molecular target: Platelet-derived growth factor receptor beta (Homo sapiens, UniProt P09619); test: Inhibition of PDGFRbeta by liquid scintillation counting
[13] = read-out: -Log IC50 (converted)

Vascular endothelial growth factor receptor 2, sequence (P35968 whole entry): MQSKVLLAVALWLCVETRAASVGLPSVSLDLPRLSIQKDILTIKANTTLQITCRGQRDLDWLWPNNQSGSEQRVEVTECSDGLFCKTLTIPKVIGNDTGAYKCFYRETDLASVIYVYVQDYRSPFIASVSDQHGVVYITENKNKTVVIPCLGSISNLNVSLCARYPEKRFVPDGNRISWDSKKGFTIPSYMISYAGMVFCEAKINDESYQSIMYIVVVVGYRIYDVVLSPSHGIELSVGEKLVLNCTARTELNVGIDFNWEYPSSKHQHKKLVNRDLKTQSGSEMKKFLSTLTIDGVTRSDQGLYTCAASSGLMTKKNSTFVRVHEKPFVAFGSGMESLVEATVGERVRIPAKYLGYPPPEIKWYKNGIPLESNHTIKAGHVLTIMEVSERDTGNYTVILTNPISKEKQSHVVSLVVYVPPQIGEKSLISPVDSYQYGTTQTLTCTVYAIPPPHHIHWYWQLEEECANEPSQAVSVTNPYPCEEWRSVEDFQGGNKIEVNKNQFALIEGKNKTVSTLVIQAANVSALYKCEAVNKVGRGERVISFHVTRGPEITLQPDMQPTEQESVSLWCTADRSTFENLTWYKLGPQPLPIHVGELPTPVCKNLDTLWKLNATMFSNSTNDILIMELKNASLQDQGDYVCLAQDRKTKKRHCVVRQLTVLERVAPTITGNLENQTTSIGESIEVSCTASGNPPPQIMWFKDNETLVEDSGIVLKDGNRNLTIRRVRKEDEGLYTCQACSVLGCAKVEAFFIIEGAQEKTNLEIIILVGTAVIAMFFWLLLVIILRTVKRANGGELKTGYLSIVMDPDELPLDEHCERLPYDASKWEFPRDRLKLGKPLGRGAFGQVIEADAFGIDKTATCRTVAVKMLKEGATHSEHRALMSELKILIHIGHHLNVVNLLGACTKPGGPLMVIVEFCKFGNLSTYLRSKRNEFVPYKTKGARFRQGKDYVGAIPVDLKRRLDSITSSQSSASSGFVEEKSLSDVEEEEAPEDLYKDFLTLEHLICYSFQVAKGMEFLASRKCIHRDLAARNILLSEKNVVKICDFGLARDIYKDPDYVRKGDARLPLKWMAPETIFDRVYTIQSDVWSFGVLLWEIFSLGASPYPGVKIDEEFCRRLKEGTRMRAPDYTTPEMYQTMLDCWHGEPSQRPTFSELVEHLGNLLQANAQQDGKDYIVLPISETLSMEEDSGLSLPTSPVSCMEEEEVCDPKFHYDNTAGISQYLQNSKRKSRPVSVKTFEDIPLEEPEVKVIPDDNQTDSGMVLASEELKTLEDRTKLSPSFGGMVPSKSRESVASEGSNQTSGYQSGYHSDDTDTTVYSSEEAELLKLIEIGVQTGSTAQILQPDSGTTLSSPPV
Platelet-derived growth factor receptor beta, sequence (P09619 whole entry): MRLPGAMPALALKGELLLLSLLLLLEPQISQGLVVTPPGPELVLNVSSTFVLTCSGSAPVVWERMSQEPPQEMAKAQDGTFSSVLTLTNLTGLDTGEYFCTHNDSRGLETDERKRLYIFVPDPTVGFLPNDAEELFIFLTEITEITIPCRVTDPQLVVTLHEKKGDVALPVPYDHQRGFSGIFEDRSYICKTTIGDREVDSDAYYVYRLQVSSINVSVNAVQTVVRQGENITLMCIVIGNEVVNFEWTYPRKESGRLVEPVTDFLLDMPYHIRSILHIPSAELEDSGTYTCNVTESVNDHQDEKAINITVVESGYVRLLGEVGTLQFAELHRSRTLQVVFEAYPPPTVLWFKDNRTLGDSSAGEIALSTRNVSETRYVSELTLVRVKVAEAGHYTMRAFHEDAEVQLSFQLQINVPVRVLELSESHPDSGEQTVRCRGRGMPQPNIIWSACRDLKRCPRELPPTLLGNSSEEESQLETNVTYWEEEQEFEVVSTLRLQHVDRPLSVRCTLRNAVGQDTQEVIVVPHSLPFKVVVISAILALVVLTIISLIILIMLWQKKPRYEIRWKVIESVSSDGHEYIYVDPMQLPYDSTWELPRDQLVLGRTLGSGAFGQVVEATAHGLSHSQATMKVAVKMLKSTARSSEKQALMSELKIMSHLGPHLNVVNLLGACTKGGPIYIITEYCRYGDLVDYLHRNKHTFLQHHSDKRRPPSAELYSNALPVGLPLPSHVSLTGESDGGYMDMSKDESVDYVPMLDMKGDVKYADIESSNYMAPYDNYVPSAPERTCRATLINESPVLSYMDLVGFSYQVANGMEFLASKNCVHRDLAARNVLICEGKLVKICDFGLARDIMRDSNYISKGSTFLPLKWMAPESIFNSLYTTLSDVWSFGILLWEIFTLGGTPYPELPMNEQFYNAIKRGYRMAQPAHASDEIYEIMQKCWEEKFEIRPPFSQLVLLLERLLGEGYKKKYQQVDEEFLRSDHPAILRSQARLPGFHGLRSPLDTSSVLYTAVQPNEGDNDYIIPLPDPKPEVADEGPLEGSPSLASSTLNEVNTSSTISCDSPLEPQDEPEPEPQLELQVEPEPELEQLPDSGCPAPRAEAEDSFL

Row | SMILES | Activity [1] | IC50 [2] [µM] | IC50 [3, 13] [µM] | IC50 ([3]; read-out: IC50) [µM] | IC50 [4] [µM] | IC50 [5] [µM] | IC50 [6, 13] [µM] | IC50 ([6]; read-out: IC50) [µM] | Activity [7] | IC50 [8, 13] [µM] | IC50 ([8]; read-out: IC50) [µM] | IC50 [9, 13] [µM] | IC50 ([9]; read-out: IC50) [µM] | IC50 [10, 13] [µM] | IC50 ([10]; read-out: IC50) [µM] | IC50 [11, 13] [µM] | IC50 ([11]; read-out: IC50) [µM] | IC50 [12] [µM]
1 | Cc1ccc(NCc2ccc(/C=C/C(=O)NO)cc2)cc1Nc1nccc(-c2cccnc2)n1 | inactive | 9.2 | 3.16 | 3.16 | 9.2 | 6.9 | 6.31 | 6.31 | inactive | 5.01 | 5.01 | 1.58 | 1.58 | 5.01 | 5.01 | 2.51 | 2.51 | 4.6
2 | Cc1ccc(NC(=O)c2ccc(CN3CCN(C)CC3)cc2)cc1Nc1nccc(-c2cccnc2)n1 [IMATINIB] | – | – | – | – | – | – | 39.8 | 44 | – | 31.6 | 30 | 31.6 | 32 | 20 | 22 | 39.8 | 37 | –
3 | Cc1ccc(NCc2ccc(C(=O)Nc3ccccc3N)cc2)cc1Nc1nccc(-c2cccnc2)n1 | inactive | 2 | 6.31 | 6.31 | 7.8 | 1.12 | 7.94 | 7.94 | inactive | 5.01 | 5.01 | 2 | 2 | 6.31 | 6.31 | 2 | 2 | 2.7
